{"source": "patent US20020115699A1", "about": "“Method for treating renal disease” (SmithKline Beecham p.l.c., priority 1994, published 2002)", "key": {"[1]": {"system": "Zucker fatty (fa/fa) rats", "assay": "Urinary total protein (Bio-Rad dye-binding assay, 24 h urine) in 9 month Zucker rat study", "format": "in vivo", "conditions": "for URINARY PROTEIN CONCENTRATION: mean ± SEM", "protocol": "A second study was performed in Zucker rats over a period of 9 months to investigate the longitudinal effects of the drug on systolic blood pressure and various indices of renal function, two of which are exemplified here. […] A third group of Zucker fatty rats and a further group of lean rats were given diet alone throughout the period of study. After dosing with the test compound, at monthly intervals measurements were made of systolic blood pressure, urinary total protein and urinary N-acetyl β-D-glucosaminidase (NAG) activity. Twenty-four hour urine collections, made in metabolism cages, were aliquoted and frozen at −70° C. until required for assay. Urinary protein concentration was measured using the Bio-Rad protein assay as modified for use in a 96-well microtitre plate. The assay is a dye-binding assay based on the differential colour change of a dye in response to various concentrations of protein (Bradford, Anal. Biochem., 72, 248, 1976). After a period of incubation with Dye Reagent, diluted urine samples are read at an optical density of 595 nm using a Molecular Devices multiplate reader."}, "[2]": {"system": "Zucker fatty (fa/fa) rats", "assay": "Systolic blood pressure (tail cuff) in 9 month Zucker rat study", "format": "in vivo", "conditions": "for SYSTOLIC BLOOD PRESSURE: Zucker fatty rats, mean ± SEM", "protocol": "A second study was performed in Zucker rats over a period of 9 months to investigate the longitudinal effects of the drug on systolic blood pressure and various indices of renal function, two of which are exemplified here. In one arm of the study, the drug was given in the diet (50 μmole/kg of diet) from aged 6-7 weeks in Zucker fatty (fa/fa) rats, whilst in a second arm of the study, drug treatment as above was delayed until proteinuria had become established after 4 months, indicative of structural damage already present in the kidneys. A third group of Zucker fatty rats and a further group of lean rats were given diet alone throughout the period of study.\nAfter dosing with the test compound, at monthly intervals measurements were made of systolic blood pressure, urinary total protein and urinary N-acetyl β-D-glucosaminidase (NAG) activity.\nRats were enclosed in custom-built restrainers and placed on a shelf in a warming cabinet, whose temperature was controlled at approximately 30° C. An inflatable cuff with integral pulse sensor was attached to the tail of each rat. After warming for 20-30 min the tail cuff was inflated and deflated automatically and a measurement of systolic blood pressure made using an IITC Non-Invasive Blood Pressure Monitor. This cycle was repeated several times for each rat until stable values of blood pressure were obtained.\nIn the tables below, results are given as mean values for the group ±the standard error of the mean. Results have been analysed by one way ANOVA and significant differences from the Zucker fatty rat control group have been indicated by an asterisk."}, "[3]": {"conditions": "Zucker fatty (fa/fa) rats treated from age 6-7 weeks for 9 months via the diet"}}}
{"smiles": "CN(CCOc1ccc(CC2SC(=O)NC2=O)cc1)c1ccccn1", "note": "(centres unmarked) [Test Compound, 5-[4-[2-(N-methyl-N-(2-pyridyl)amino)ethoxy]benzyl]thiazolidine-2,4-dione]", "values": [{"measurement": "rate of development of proteinuria", "setting": "[1]; [3]", "result": "markedly reduced"}, {"measurement": "URINARY PROTEIN CONCENTRATION", "setting": "[1]; Zucker fatty rats, 50 μmol/kg of diet from age 6-7 weeks (prior to renal complications), treatment duration 0 months", "result": "226 ± 15", "unit": "µg/h"}, {"measurement": "URINARY PROTEIN CONCENTRATION", "setting": "[1]; Zucker fatty rats, 50 μmol/kg of diet from age 6-7 weeks (prior to renal complications), treatment duration 1 month", "result": "373 ± 22", "unit": "µg/h"}, {"measurement": "URINARY PROTEIN CONCENTRATION", "setting": "[1]; Zucker fatty rats, 50 μmol/kg of diet from age 6-7 weeks (prior to renal complications), treatment duration 2 months", "result": "402 ± 22", "unit": "µg/h"}, {"measurement": "URINARY PROTEIN CONCENTRATION", "setting": "[1]; Zucker fatty rats, 50 μmol/kg of diet from age 6-7 weeks (prior to renal complications), treatment duration 3 months", "result": "221 ± 32", "unit": "µg/h"}, {"measurement": "URINARY PROTEIN CONCENTRATION", "setting": "[1]; Zucker fatty rats, 50 μmol/kg of diet from age 6-7 weeks (prior to renal complications), treatment duration 4 months", "result": "376 ± 54", "unit": "µg/h"}, {"measurement": "URINARY PROTEIN CONCENTRATION", "setting": "[1]; Zucker fatty rats, 50 μmol/kg of diet from age 6-7 weeks (prior to renal complications), treatment duration 5 months", "result": "1573 ± 105", "unit": "µg/h"}, {"measurement": "URINARY PROTEIN CONCENTRATION", "setting": "[1]; Zucker fatty rats, 50 μmol/kg of diet from age 6-7 weeks (prior to renal complications), treatment duration 6 months", "result": "1585 ± 147", "unit": "µg/h"}, {"measurement": "URINARY PROTEIN CONCENTRATION", "setting": "[1]; Zucker fatty rats, 50 μmol/kg of diet from age 6-7 weeks (prior to renal complications), treatment duration 7 months", "result": "2124 ± 293", "unit": "µg/h"}, {"measurement": "URINARY PROTEIN CONCENTRATION", "setting": "[1]; Zucker fatty rats, 50 μmol/kg of diet from age 6-7 weeks (prior to renal complications), treatment duration 8 months", "result": "2664 ± 370", "unit": "µg/h"}, {"measurement": "URINARY PROTEIN CONCENTRATION", "setting": "[1]; Zucker fatty rats, 50 μmol/kg of diet from age 6-7 weeks (prior to renal complications), treatment duration 9 months", "result": "3152 ± 515", "unit": "µg/h"}, {"measurement": "URINARY PROTEIN CONCENTRATION", "setting": "[1]; Zucker fatty rats, 50 μmol/kg of diet started once renal complications established (after 4 months), treatment duration 0 months", "result": "3520 ± 905", "unit": "µg/h"}, {"measurement": "URINARY PROTEIN CONCENTRATION", "setting": "[1]; Zucker fatty rats, 50 μmol/kg of diet started once renal complications established (after 4 months), treatment duration 1 month", "result": "3690 ± 386", "unit": "µg/h"}, {"measurement": "URINARY PROTEIN CONCENTRATION", "setting": "[1]; Zucker fatty rats, 50 μmol/kg of diet started once renal complications established (after 4 months), treatment duration 2 months", "result": "5330 ± 967", "unit": "µg/h"}, {"measurement": "URINARY PROTEIN CONCENTRATION", "setting": "[1]; Zucker fatty rats, 50 μmol/kg of diet started once renal complications established (after 4 months), treatment duration 3 months", "result": "6230 ± 835", "unit": "µg/h"}, {"measurement": "URINARY PROTEIN CONCENTRATION", "setting": "[1]; Zucker fatty rats, 50 μmol/kg of diet started once renal complications established (after 4 months), treatment duration 4 months", "result": "5380 ± 708", "unit": "µg/h"}, {"measurement": "URINARY PROTEIN CONCENTRATION", "setting": "[1]; Zucker fatty rats, 50 μmol/kg of diet started once renal complications established (after 4 months), treatment duration 5 months", "result": "7680 ± 825", "unit": "µg/h"}, {"measurement": "URINARY PROTEIN CONCENTRATION", "setting": "[1]; Zucker fatty rats, 50 μmol/kg of diet started once renal complications established (after 4 months), treatment duration −1 month (before start of drug)", "result": "958 ± 194", "unit": "µg/h"}, {"measurement": "URINARY PROTEIN CONCENTRATION", "setting": "[1]; Zucker fatty rats, 50 μmol/kg of diet started once renal complications established (after 4 months), treatment duration −2 months (before start of drug)", "result": "457 ± 21", "unit": "µg/h"}, {"measurement": "URINARY PROTEIN CONCENTRATION", "setting": "[1]; Zucker fatty rats, 50 μmol/kg of diet started once renal complications established (after 4 months), treatment duration −3 months (before start of drug)", "result": "347 ± 32", "unit": "µg/h"}, {"measurement": "URINARY PROTEIN CONCENTRATION", "setting": "[1]; Zucker fatty rats, 50 μmol/kg of diet started once renal complications established (after 4 months), treatment duration −4 months (before start of drug)", "result": "220 ± 13", "unit": "µg/h"}, {"measurement": "rate of increase in the urinary protein concentration", "setting": "[1]; Zucker fatty rats, drug treatment commenced after proteinuria had become established", "result": "marked reduction"}, {"measurement": "development of hypertension", "setting": "[2]; [3]", "result": "prevented the development of hypertension"}, {"measurement": "SYSTOLIC BLOOD PRESSURE", "setting": "[2]; 50 μmol/kg of diet from age 6-7 weeks (prior to renal complications), treatment duration 0 months", "result": "102 ± 3", "unit": "mm Hg"}, {"measurement": "SYSTOLIC BLOOD PRESSURE", "setting": "[2]; 50 μmol/kg of diet from age 6-7 weeks (prior to renal complications), treatment duration 1 month", "result": "110 ± 3", "unit": "mm Hg"}, {"measurement": "SYSTOLIC BLOOD PRESSURE", "setting": "[2]; 50 μmol/kg of diet from age 6-7 weeks (prior to renal complications), treatment duration 2 months", "result": "122 ± 4", "unit": "mm Hg"}, {"measurement": "SYSTOLIC BLOOD PRESSURE", "setting": "[2]; 50 μmol/kg of diet from age 6-7 weeks (prior to renal complications), treatment duration 3 months", "result": "122 ± 4", "unit": "mm Hg"}, {"measurement": "SYSTOLIC BLOOD PRESSURE", "setting": "[2]; 50 μmol/kg of diet from age 6-7 weeks (prior to renal complications), treatment duration 4 months", "result": "126 ± 6", "unit": "mm Hg"}, {"measurement": "SYSTOLIC BLOOD PRESSURE", "setting": "[2]; 50 μmol/kg of diet from age 6-7 weeks (prior to renal complications), treatment duration 5 months", "result": "131 ± 4", "unit": "mm Hg"}, {"measurement": "SYSTOLIC BLOOD PRESSURE", "setting": "[2]; 50 μmol/kg of diet from age 6-7 weeks (prior to renal complications), treatment duration 6 months", "result": "128 ± 3", "unit": "mm Hg"}, {"measurement": "SYSTOLIC BLOOD PRESSURE", "setting": "[2]; 50 μmol/kg of diet from age 6-7 weeks (prior to renal complications), treatment duration 7 months", "result": "125 ± 6", "unit": "mm Hg"}, {"measurement": "SYSTOLIC BLOOD PRESSURE", "setting": "[2]; 50 μmol/kg of diet from age 6-7 weeks (prior to renal complications), treatment duration 8 months", "result": "133 ± 5", "unit": "mm Hg"}, {"measurement": "SYSTOLIC BLOOD PRESSURE", "setting": "[2]; 50 μmol/kg of diet from age 6-7 weeks (prior to renal complications), treatment duration 9 months", "result": "143 ± 4", "unit": "mm Hg"}, {"measurement": "SYSTOLIC BLOOD PRESSURE", "setting": "[2]; 50 μmol/kg of diet started once renal complications established (after 4 months), treatment duration 0 months", "result": "146 ± 4", "unit": "mm Hg"}, {"measurement": "SYSTOLIC BLOOD PRESSURE", "setting": "[2]; 50 μmol/kg of diet started once renal complications established (after 4 months), treatment duration 1 month", "result": "140 ± 5", "unit": "mm Hg"}]}
